Measured values taken from patent US6339101B1, “N-linked sulfonamides of N-heterocyclic carboxylic acids or isosteres for vision and memory disorders” (GPI NIL Holdings, Inc., priority 1998, dated 2002).

Legend:
[1] = tested on: retinal ganglion cell axons; assay: Protection of retinal ganglion cell axons from degeneration following optic nerve transection (Table V); assay type: in vivo; conditions: ± SEM
Source text: Efficacy of representative compounds from different immunophilin ligand series in protecting retinal ganglion cell axons from degeneration following optic nerve transection is set forth in Table V.

[2] = biological target: FKBP12 (Homo sapiens, UniProt P62942); assay: Ki test: inhibition of peptidyl-prolyl isomerase (rotamase) activity of FKBP; assay type: biochemical; conditions: apparent Ki; read-out: Ki rotomase
Chain of FKBP12 (P62942 whole entry, species assumed): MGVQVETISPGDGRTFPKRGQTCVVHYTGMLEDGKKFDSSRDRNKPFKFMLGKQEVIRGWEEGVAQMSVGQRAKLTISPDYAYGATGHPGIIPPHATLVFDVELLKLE
Source text: The inhibition of the prolyl peptidyl cis-trans isomerase activity of FKBP may be measured as an indicator of this affinity.
These values are obtained as apparent Ki's.
The cis-trans isomerization of an alanine-proline bond in a model substrate, N-succinyl-Ala-Ala-Pro-Phe-p-nitroanilide, is monitored spectrophotometrically in a chymotrypsin-coupled assay, which releases para-nitroanilide from the trans form of the substrate. The inhibition of this reaction caused by the addition of different concentrations of inhibitor is determined, and the data is analyzed as a change in first-order rate constant as a function of inhibitor concentration to yield the apparent Ki values.
In a plastic cuvette are added 950 ml of ice cold assay buffer (25 mM HEPES, pH 7.8, 100 nM NaCl), 10 ml of FKBP (2.5 mM in 10 mM Tris-Cl pH 7.5, 100 mM NaCl, 1 mM dithiothreitol), 25 ml of chymotrypsin (50 mg/ml in 1 mM HCl) and 10 ml of test compound at various concentrations in dimethyl sulfoxide. The reaction is initiated by the addition of 5 ml of substrate (succinyl-Ala-Phe-Pro-Phe-para-nitroanilide, 5 mg/ml in 2.35 mM LiCl in trifluoroethanol).
The absorbance at 390 nm versus time is monitored for 90 seconds using a spectrophotometer and the rate constants are determined from the absorbance versus time data files.

[3] = Clearance (Table V comments); assay type: in vitro ADME
[4] = tested on: retina; assay: Streptozotocin induced diabetes, retinal neovascularization and neuron loss; assay type: in vivo; conditions: 28 day treatment beginning 8 weeks after onset of streptozotocin diabetes
[5] = tested on: retinal ganglion cells, optic nerve axons and myelin; assay: Retinal ischemia by raised intraocular pressure; assay type: in vivo, rats; conditions: 28 days after 1 hour retinal ischemia
Source text: Retinal ganglion cells were retrogradely labeled in adult rats by bilateral injection of fluorogold in their lateral geniculate nuclei. Labeled ganglion cells in the normal rat retina appear as white profiles against the dark background (FIG. 1A). Complete retinal ischemia was produced by infusing normal saline solution into the retinal vitreous cavity of each eye until the intraocular pressure exceeded arterial blood pressure. 28 days after the ischemic episode extensive degeneration of retinal ganglion cell was evidenced by massive reduction in the density of fluorogold labeled cells (FIG. 1B).
Optic nerves from vehicle treated cases examined 28 days after a 1 hour retinal ischemia episode are characterized by a decreased density of optic nerve axons and the appearance of numerous degenerating myelin figures (bright white filled circles).

[6] = tested on: retinal ganglion cells; assay: Example 18: optic nerve transection, ganglion cell survival and axonal dying back; assay type: in vivo, Sprague Dawley rats; conditions: 10 mg/kg/day s.c. for 28 days; 90 days after transection
Source text: Transection of the mammalian optic nerve results in a brief period of abortive regeneration, but the majority of axotomized neurons die and the axons from many persisting ganglion cells die back beyond the optic nerve head.

[7] = tested on: retinal ganglion cells and optic nerve axons; assay: In vivo retinal ganglion cell and optic nerve axon tests after optic nerve transection (Table 1); parameters: species or system Sprague Dawley rats; conditions: 90 days after optic nerve transection
Source text: All eyes and optic nerve stumps were removed.

[8] = Morris watermaze spatial learning and memory in aged rodents; assay type: in vivo, C57BL/6N-Nia mice; conditions: aged impaired mice, 10 mg/kg daily, after 3 weeks of dosing; vs young mice
Source text: The Morris watermaze is widely used for assessing spatial memory formation and retention in experimental animals. The test depends on the animal's ability to utilize spatial visual information in order to locate a submerged escape platform in a water tank. It is important that the tank itself be as devoid of specific visual features as possible—thus, it is always circular in shape, the sides are kept smooth and in uniform dull colors, and the water is rendered opaque with nontoxic watercolor pigment or powdered milk. This is to ensure that the animal navigates only by the use of more distant visual cues, or by the use of intra-maze cues specifically provided by the experimenter.
The animals' path, speed, and swim time are tracked with a ceiling camera for later computerized analysis. Over the course of several successive trials, spatial learning can therefore be defined as a drop of distance swum, or time elapsed, from placement in the tank until escape onto the invisible platform. […]
Retention testing began after 3 weeks of dosing using the same methods as the acquisition phase. Swim Distances (cm) were analyzed in a 7×5 ANOVA including Groups and Blocks (1-5) as factors in the analysis, treating Blocks as a repeated measure.

Structure (SMILES): CCC(C)(C)C(=O)C(=O)N1CCCC[C@H]1C(=O)SC(CCc1ccccc1)CCc1ccccc1 [E]
- RT-RGC azon density 11 days after ON Transection ( axon rescued) [1]: 56.6% ±9.4% SEM
- Ki [2]: 20 nM
- Clearance [3]: 41.8 µL/min

Structure (SMILES): CCC(C)(C)C(=O)C(=O)N1CCS[C@H]1C(=O)OCCCc1cccnc1 [F]
- RT-RGC azon density 11 days after ON Transection ( axon rescued) [1]: 55.1% ±5.9% SEM

Structure (SMILES): CCC(C)(C)C(=O)C(=O)N1CCC[C@H]1C(=O)CCCCc1cccnc1 [J]
- RT-RGC azon density 11 days after ON Transection ( axon rescued) [1]: 15.8% ±4.8% SEM

Structure (SMILES): CCC(C)(C)C(=O)C(=O)N1CCC[C@H]1C(=O)SCCC(c1ccccc1)c1ccccc1 [M]
- RT-RGC azon density 11 days after ON Transection ( axon rescued) [1]: −6.3% +3.9% SEM

Structure (SMILES): CCC(C)(C)C(=O)C(=O)N1CCCC[C@H]1C(=O)SCCC(c1ccccc1)c1ccccc1 [K]
- RT-RGC azon density 11 days after ON Transection ( axon rescued) [1]: 13.0% ±4.2% SEM

Structure (SMILES): CCC(C)(C)C(=O)C(=O)N1CCC[C@H]1C(=O)O [L]
- RT-RGC azon density 11 days after ON Transection ( axon rescued) [1]: 7.8% ±3.0% SEM

Structure (SMILES): O=C(OCCCCc1ccccc1)[C@@H]1CCCCN1S(=O)(=O)Cc1ccccc1 [D]
- RT-RGC azon density 11 days after ON Transection ( axon rescued) [1]: 58.4% ±6.4% SEM

Structure (SMILES): O=C(SCCCc1ccccc1)C1CCCN1C(=O)NC12CC3CC(CC(C3)C1)C2 (stereo not shown) [B]
- RT-RGC azon density 11 days after ON Transection ( axon rescued) [1]: 100.0% ±5.2% SEM

Structure (SMILES): CCC(C)(C)C(=O)C(=O)N1CCC[C@H]1C(=O)OCCCc1cccnc1 [GPI 1046]
- loss of neurons in INL and GCL [4]: appeared to decrease the loss of neurons
- neovascularization in PR, ONL, OPL and INL of retina [4]: reduced neovascularization
- neuronal loss in the ONL [4]: did not appear to protect
- protection of optic nerve axons from degeneration [5]: protected the majority of optic nerve axons from degeneration
- RT-RGC azon density 11 days after ON Transection ( axon rescued) [1]: 60.5% ±3.9 SEM
- ganglion cell population spared [6]: 25%
- preservation of axons of protected neurons in proximal stump [6]: preserved the axons of virtually all protected neurons
- Ki [2]: 7.5 nM
- RGC Counts (mean density + SEM of Fluoro-gold labeled retinal ganglion cells in 400 μm × 400 μm gridfields) ([7]; 10 mg/kg/day sc for 28 days): 67.9 ± 5.8
- increased ON axon density (adjusted for optic nerve diameter) ([7]; 14 days treatment): 1.5X
- increased ON axon density (adjusted for optic nerve diameter) ([7]; 28 days treatment): 5.0X
- difference between young and aged impaired GPI-1046 treated groups, retention phase [8]: no longer any statistically significant difference

Structure (SMILES): O=C(SCCCc1ccccc1)[C@@H]1CCCN1S(=O)(=O)Cc1ccccc1 [C]
- RT-RGC azon density 11 days after ON Transection ( axon rescued) [1]: 60.4% ±3.1% SEM

Structure (SMILES): CCC(C)(C)C(=O)C(=O)N1CCCC[C@H]1C(N)=O [H]
- RT-RGC azon density 11 days after ON Transection ( axon rescued) [1]: 30.3% ±8.0% SEM

Structure (SMILES): CCC(C)(C)C(=O)C(=O)N1CCCC[C@H]1C(=O)O [G]
- RT-RGC azon density 11 days after ON Transection ( axon rescued) [1]: 34.0% ±4.8% SEM
